What was measured:
[1] = target: T1, Human recombinant HDAC2 enzyme (Homo sapiens, UniProt Q92769); assay: HDAC2 fluorescence enzyme inhibition assay (Boc-Lys(acetyl)-AMC); assay type: biochemical
T1 construct: purchased Abcam
Procedure: Firstly, a 96-well plate was loaded with a blend comprising 10 μL of HDAC2 enzyme solution and 50 μL of the test compounds at assorted concentrations, followed by incubation at a temperature of 37°C for a duration of 5 min. Subsequently, 10 μL of the fluorescent substrate Boc-Lys (acetyl)-AMC was added and continued for 30 min. Finally, 100 μL of developer containing trypsin and TSA was injected into each well and incubated for 20 min.

HCC cell lines = assay: MTT assay, all HCC cell lines; assay type: cell-based; settings: Homo sapiens, range over HepG2, Hep3B, Huh7, SNU449, HepG2/MDR, 48 h, read-out: IC50 values against all HCC cell lines
Procedure: (§1) The MTT assay was conducted to evaluate the inhibitory impact of PKHD-5 on HCC cells, HepG2/ADR cells, and normal liver cells ([Ding et al., 2020]). Cells at a density of 4×10^3 cells/well were inoculated into 96-well plates for overnight culture at 37°C. The cells were treated with varying concentrations of the test compounds and incubated for 48 h. Then, 100 μL of a 0.5 mg/mL MTT solution was pipetted into each well, and the incubation was prolonged for 4 h, resulting in the formation of a purple precipitate. Afterward, 200 μL of DMSO was added to each well, and the plate was vortexed for 10 min. The absorbance at 570 nm was determined with a Synergy 4 microplate reader (BioTek, United States). Each experiment was performed three times under the same conditions.

Huh7 = assay: MTT assay; assay type: cell-based; settings: Homo sapiens, Huh-7, Huh7, 48 h, read-out: IC50 (μM) ± SD Huh7
Procedure: as §1, with “Cells” for “The MTT assay was conducted to evaluate the inhibitory impact of PKHD-5 on HCC cells, HepG2/ADR cells, and normal liver cells ([Ding et al., 2020]). Cells”, “The cells were treated with varying concentrations of the test compounds and incubated for 48 h.” left out

Hep3B = assay: MTT assay; assay type: cell-based; settings: Homo sapiens, 48 h, read-out: IC50 (μM) ± SD Hep3B
Procedure: as §1, with “Cells” for “The MTT assay was conducted to evaluate the inhibitory impact of PKHD-5 on HCC cells, HepG2/ADR cells, and normal liver cells ([Ding et al., 2020]). Cells”, “The cells were treated with varying concentrations of the test compounds and incubated for 48 h.” left out

SNU449 = assay: MTT assay; assay type: cell-based; settings: Homo sapiens, SNU-449, SNU449, 48 h, read-out: IC50 (μM) ± SD SNU449
Procedure: as §1, with “Cells” for “The MTT assay was conducted to evaluate the inhibitory impact of PKHD-5 on HCC cells, HepG2/ADR cells, and normal liver cells ([Ding et al., 2020]). Cells”, “The cells were treated with varying concentrations of the test compounds and incubated for 48 h.” left out

[2] = system: normal human liver cell line L02; assay: MTT assay; assay type: cell-based; settings: normal liver cell line L02, 48 h
Procedure: as §1, with “Cells” for “The MTT assay was conducted to evaluate the inhibitory impact of PKHD-5 on HCC cells, HepG2/ADR cells, and normal liver cells ([Ding et al., 2020]). Cells”, “The cells were treated with varying concentrations of the test compounds and incubated for 48 h.” left out

HepG2 = assay: MTT assay; assay type: cell-based; settings: Homo sapiens, HepG2, 48 h, read-out: IC50 (μM) ± SD HepG2
Procedure: as §1, with “Cells” for “The MTT assay was conducted to evaluate the inhibitory impact of PKHD-5 on HCC cells, HepG2/ADR cells, and normal liver cells ([Ding et al., 2020]). Cells”, “The cells were treated with varying concentrations of the test compounds and incubated for 48 h.” left out

HepG2/MDR = assay: MTT assay; assay type: cell-based; settings: Homo sapiens, multidrug-resistant HepG2/MDR, 48 h, read-out: IC50 (μM) ± SD HepG2/MDR
Procedure: as §1, with “Cells” for “The MTT assay was conducted to evaluate the inhibitory impact of PKHD-5 on HCC cells, HepG2/ADR cells, and normal liver cells ([Ding et al., 2020]). Cells”, “The cells were treated with varying concentrations of the test compounds and incubated for 48 h.” left out

63 distinct kinases = assay: SelectScreen kinase selectivity assay, whole panel; assay type: biochemical; settings: read-out: IC50 values for each of the 63 kinases
Procedure: (§2) The kinase selectivity analysis of PKHD-5 was performed using the SelectScreen kinase analysis service provided by Thermo Fisher Scientific. The experiment initially involved the preparation of a series of inhibitor solutions at varying concentrations, which were then reacted with various kinase targets under standardized conditions to calculate the percentage inhibition for each test solution. Ultimately, the IC50 values were calculated based on the concentration-inhibition curves by fitting a four-parameter logistic curve, thereby assessing the potency and selectivity of the inhibitors. The analysis results are detailed in Supplementary Table S1.

In vivo pharmacokinetics = settings: BALB/c, mouse, plasma, mice, 5 mg/kg
Procedure: In the pharmacokinetic (PK) assessment of PKHD-5, BALB/c mice were utilized as the experimental model. PKHD-5 was administered either intraperitoneally or orally at a dosage of 5 mg/kg. Serial blood samples (0.25 mL) were collected at 0.25, 0.5, 1, 2, 4, 8, 16, and 24 h post-treatment. Each plasma sample (50 μL) underwent protein precipitation with a 1:1 mixture of methanol and acetonitrile (200 μL) and an internal standard. After vortexing for 5 min, the samples were centrifuged at 12,000 rpm for 5 min, yielding a supernatant (60 μL) for LC-MS/MS analysis. The data obtained were analyzed using Phoenix software to determine the PK profile of PKHD-5 in the mouse model.

RAF1 = target: T2, RAF1 (Homo sapiens, UniProt P04049, Y340D/Y341D); assay: SelectScreen kinase selectivity assay; assay type: biochemical
T2 construct: purchased Thermo Fisher Scientific (SelectScreen service)
Procedure: as §2

EPHA4 = target: T3, EPHA4 (Homo sapiens, UniProt P54764); assay: SelectScreen kinase selectivity assay; assay type: biochemical
T3 construct: purchased Thermo Fisher Scientific (SelectScreen service)
Procedure: as §2

PDGFRB = target: T4, PDGFRB (Homo sapiens, UniProt P09619); assay: SelectScreen kinase selectivity assay; assay type: biochemical
T4 construct: purchased Thermo Fisher Scientific (SelectScreen service)
Procedure: as §2

HepG2 xenograft = assay: HepG2 bearing xenograft model; assay type: in vivo, BALB/c nude mice; settings: versus vehicle
Text: A previously reported human tumor xenograft model was established to evaluate the anti-tumor effects of PKHD-5 in vivo ([Zhou et al., 2022]). All procedures involving animals were granted approval by the Ethics Committee at China Pharmaceutical University. A total of 20 male BALB/c nude mice (6 weeks old) were purchased from Changzhou Cave Experimental Animal Co., Ltd. (Changzhou, China). Mice were maintained under specific pathogen-free (SPF) conditions, with environmental parameters meticulously controlled at a temperature of 25°C ± 2°C, relative humidity maintained at 50% ± 5%, and an established diurnal cycle of 12 h for both light and darkness. During the experiment, all mice were free to access water and food. After 10 days of adaptive feeding, HepG2 cells (1×10^7 cells) were subcutaneously injected into mice. Once the tumors reached a size of 90–120 mm^3, the nude mice were randomly assigned to either the vehicle control group or the group treated with PKHD-5 (n = 5). Furthermore, the treatment was divided into three dose-based groups of 1, 5, and 10 mg/kg. The tumor volume was measured by a digital caliper for a total of 18 days and calculated by the following formula: (c×c×d)/2, where c represents the minimum diameter of the tumor and d indicates the maximum diameter. In addition, the body weight of the mice was measured and recorded every 3 days.

T1 sequence (Q92769 whole entry): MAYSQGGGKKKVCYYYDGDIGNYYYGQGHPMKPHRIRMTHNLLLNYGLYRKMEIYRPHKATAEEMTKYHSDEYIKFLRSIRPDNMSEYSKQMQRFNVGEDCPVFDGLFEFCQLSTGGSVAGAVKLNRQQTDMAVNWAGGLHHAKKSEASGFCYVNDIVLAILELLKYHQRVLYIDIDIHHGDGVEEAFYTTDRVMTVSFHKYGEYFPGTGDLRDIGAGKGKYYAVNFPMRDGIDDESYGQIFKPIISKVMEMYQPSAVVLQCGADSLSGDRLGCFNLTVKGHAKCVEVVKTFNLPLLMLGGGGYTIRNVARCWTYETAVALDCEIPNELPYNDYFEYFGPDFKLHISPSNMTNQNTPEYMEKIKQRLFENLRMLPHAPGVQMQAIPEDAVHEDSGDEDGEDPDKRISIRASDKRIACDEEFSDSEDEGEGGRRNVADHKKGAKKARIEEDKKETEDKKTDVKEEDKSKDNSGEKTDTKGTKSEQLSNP
T3 sequence (P54764 20-986): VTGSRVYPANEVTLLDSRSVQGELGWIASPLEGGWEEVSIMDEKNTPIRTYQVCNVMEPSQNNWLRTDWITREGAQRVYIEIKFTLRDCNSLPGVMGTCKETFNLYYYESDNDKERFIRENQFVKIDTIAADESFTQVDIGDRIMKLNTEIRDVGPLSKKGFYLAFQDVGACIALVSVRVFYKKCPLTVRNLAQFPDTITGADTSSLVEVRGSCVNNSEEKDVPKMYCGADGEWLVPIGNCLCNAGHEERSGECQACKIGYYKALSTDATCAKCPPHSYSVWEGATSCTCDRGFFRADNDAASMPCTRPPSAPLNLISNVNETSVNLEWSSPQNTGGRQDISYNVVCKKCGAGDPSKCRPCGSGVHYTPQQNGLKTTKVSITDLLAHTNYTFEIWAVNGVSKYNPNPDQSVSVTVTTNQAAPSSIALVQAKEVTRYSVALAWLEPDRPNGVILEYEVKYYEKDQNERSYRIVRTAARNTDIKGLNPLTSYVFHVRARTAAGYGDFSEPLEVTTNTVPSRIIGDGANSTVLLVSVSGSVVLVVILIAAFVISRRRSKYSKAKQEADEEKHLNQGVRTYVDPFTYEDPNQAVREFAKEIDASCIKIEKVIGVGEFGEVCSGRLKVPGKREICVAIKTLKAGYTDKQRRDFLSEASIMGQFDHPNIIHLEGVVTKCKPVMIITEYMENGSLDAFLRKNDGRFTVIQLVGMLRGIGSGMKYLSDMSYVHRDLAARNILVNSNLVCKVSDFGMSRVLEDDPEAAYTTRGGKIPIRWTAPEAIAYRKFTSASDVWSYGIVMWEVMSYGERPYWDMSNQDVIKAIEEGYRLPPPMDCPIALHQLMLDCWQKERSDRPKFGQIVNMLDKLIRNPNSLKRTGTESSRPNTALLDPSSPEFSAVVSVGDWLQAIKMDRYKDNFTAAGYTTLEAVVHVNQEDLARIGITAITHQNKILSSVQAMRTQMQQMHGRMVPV
T4 sequence (P09619 33-1106): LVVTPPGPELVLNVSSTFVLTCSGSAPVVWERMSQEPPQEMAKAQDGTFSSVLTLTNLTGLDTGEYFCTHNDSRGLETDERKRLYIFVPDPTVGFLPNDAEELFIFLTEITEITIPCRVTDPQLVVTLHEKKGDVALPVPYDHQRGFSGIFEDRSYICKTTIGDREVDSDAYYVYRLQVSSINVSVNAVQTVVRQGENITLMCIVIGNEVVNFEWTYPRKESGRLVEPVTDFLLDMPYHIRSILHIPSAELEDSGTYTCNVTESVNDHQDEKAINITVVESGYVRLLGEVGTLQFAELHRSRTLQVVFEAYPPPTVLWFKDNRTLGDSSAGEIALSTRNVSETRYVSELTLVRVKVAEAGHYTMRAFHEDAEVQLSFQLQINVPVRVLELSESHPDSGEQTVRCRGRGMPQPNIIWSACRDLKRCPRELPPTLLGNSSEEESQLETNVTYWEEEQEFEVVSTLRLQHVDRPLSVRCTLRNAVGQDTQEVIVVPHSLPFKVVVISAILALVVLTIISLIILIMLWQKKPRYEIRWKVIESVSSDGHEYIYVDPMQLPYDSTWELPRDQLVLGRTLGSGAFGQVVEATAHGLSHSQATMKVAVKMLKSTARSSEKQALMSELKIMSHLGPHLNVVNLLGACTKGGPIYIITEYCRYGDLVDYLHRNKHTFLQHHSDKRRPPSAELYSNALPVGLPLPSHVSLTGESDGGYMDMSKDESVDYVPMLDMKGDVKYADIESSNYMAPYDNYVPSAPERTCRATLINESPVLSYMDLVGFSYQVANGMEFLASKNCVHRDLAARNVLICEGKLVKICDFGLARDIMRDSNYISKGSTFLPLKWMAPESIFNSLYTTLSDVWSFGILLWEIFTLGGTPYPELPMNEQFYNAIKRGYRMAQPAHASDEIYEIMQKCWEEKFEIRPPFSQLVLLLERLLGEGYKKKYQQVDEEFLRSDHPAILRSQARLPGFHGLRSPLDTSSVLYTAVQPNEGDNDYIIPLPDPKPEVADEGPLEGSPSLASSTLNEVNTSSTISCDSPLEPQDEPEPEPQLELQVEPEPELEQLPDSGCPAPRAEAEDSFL
T2 sequence (P04049 306-648 Y340D/Y341D limits assumed): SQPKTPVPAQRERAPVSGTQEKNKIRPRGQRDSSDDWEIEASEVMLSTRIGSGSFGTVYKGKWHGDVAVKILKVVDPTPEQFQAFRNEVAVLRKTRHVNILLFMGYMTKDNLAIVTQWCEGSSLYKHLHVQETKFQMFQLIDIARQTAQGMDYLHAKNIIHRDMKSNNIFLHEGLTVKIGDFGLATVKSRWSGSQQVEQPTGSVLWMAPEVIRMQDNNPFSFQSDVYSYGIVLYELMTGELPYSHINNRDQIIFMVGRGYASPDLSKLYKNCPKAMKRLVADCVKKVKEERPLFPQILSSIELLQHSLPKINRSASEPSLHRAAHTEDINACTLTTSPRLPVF

Cc1ccc(O)c(C)c1-n1c(N)c(C(N)=O)c2cc(CCCCCC(=O)NO)c(C)nc21 [PKHD-5]
IC50 ([1]; fluorescence signal-based method): 2.28 ± 0.13 nM | fold inhibition of HDAC2 compared with SAHA ([1]; ratio of IC50 values versus SAHA): 4.42 fold | IC50 (HCC cell lines): 190 to 920 nM | IC50 (Huh7): 0.47 ± 0.04 µM | IC50 (Hep3B): 0.38 ± 0.05 µM | IC50 (SNU449): 0.59 ± 0.06 µM | IC50 [2]: > 100000 nM | IC50 (HepG2): 0.19 ± 0.03 µM | IC50 (HepG2/MDR): 0.92 ± 0.05 µM | IC50 (63 distinct kinases): > 50000 nM | AUC (In vivo pharmacokinetics; IP): 15 µM·h | Cmax (In vivo pharmacokinetics; IP): 3.26 µM | bioavailability (In vivo pharmacokinetics; IP): 82% | half-life (In vivo pharmacokinetics; IP): 4.75 h | AUC (In vivo pharmacokinetics; PO): 12.2 µM·h | Cmax (In vivo pharmacokinetics; PO): 2.92 µM | bioavailability (In vivo pharmacokinetics; PO): 66% | half-life (In vivo pharmacokinetics; PO): 3.93 h | IC50 (RAF1): > 50 µM | IC50 (EPHA4): > 50 µM | IC50 (PDGFRB): > 50 µM | body weight changes in mice (HepG2 xenograft; HepG2 xenograft mice): did not exhibit any significant disparities | rate at which tumors grew (tumor volume) (HepG2 xenograft; HepG2 xenograft, intraperitoneal 1, 5, 10 mg/kg, 18 days): considerably lower
